Data taken from patent US7632972B2, “Compounds and methods for treatment of cancer and modulation of programmed cell death for melanoma and other cancer cells” (The Board of Trustees of the University of Illionis, priority 2003, dated 2009).

System: U-937 cells
Test: High-throughput cell death assay on library members (MTS/PMS)
Assay type: cell-based, human
Conditions: library members at 100 μM, 24 hours
Procedure: A three-tiered system was devised to identify compounds that selectively induce apoptosis in cancer cells. First, all compounds were screened at 100 μM in a high-throughput manner for their ability to induce death in two cancer cell lines, HL-60 (leukemia) and U-937 (lymphoma).
Test compounds were transferred into the wells using a 96-pin transfer apparatus (V & P Scientific, San Diego Calif.) that transfers 0.2 μL of compound. The compounds were made up as 50 mM stock solutions in 100% EtOH, so one transfer gave a final concentration of 100 μM. Controls were performed in which only EtOH (containing no compound) was pin-transferred into wells containing cells. The cells were incubated with the compounds for 24 hours, and then cell death was quantitated.

SMILES	Induction of death in U-937 cells (percentages of cell death) [%]
COc1ccc([C@@H](CNC(=O)/C=C/c2ccc(O)cc2)OC)cc1 [Compound 10-B]	60
COc1cccc(/C=C/C(=O)NC[C@@H](O)c2ccccc2)c1 [Compound 12-H]	51
O=C(/C=C/c1ccc(O)c(O)c1)NC[C@@H](O)c1ccc(O)cc1 [Compound 13-C]	−36
COc1cccc(/C=C/C(=O)NC[C@@H](OC)c2ccccc2)c1 [Compound 8-H]	60
COc1ccc([C@@H](CNC(=O)/C=C/c2ccc(O)c(OC)c2)OC)cc1 [Compound 10-D]	31
COc1ccc(/C=C/C(=O)NC[C@@H](O)c2ccc(O)cc2)cc1O [Compound 13-E]	43
O=C(/C=C/c1ccc(O)c(O)c1)NC[C@H](O)c1ccc(O)cc1 [Compound 15-C]	−29
COc1cccc(/C=C/C(=O)NC[C@@H](O)c2ccc(O)cc2)c1 [Compound 13-H]	43
COc1ccc(CCNC(=O)/C=C/c2cc(OC)c(O)c(OC)c2)cc1 [Compound 18-G]	35
O=C(/C=C/c1ccc(O)c(O)c1)NCCc1ccc(O)cc1 [Compound 17-C]	15
COc1ccc([C@@H](CNC(=O)/C=C/c2ccc(OC)c(O)c2)OC)cc1 [Compound 10-E]	55
COc1ccc(/C=C/C(=O)NC[C@H](O)c2ccc(O)cc2)cc1O [Compound 15-E]	22
O=C(/C=C/c1ccccc1)NC[C@H](O)c1ccc(O)cc1 [Compound 15-A]	27
COc1cc(/C=C/C(=O)NC[C@@H](O)c2ccc(O)cc2)cc(OC)c1OC [Compound 13-F]	22
COc1cc(/C=C/C(=O)NC[C@@H](OC)c2ccccc2)cc(OC)c1O [Compound 8-G]	−3
CO[C@H](CNC(=O)/C=C/c1ccc(O)c(O)c1)c1ccc(O)cc1 [Compound 9-C]	−12
CO[C@@H](CNC(=O)/C=C/c1ccccc1)c1ccc(O)cc1 [Compound 11-A]	26
COc1ccc(CCNC(=O)/C=C/c2ccccc2)cc1 [Compound 18-A]	56
COc1ccc(CCNC(=O)/C=C/c2ccc(OC)c(O)c2)cc1 [Compound 18-E]	73
COc1cccc(/C=C/C(=O)NCCc2ccc(O)cc2)c1 [Compound 17-H]	41
O=C(/C=C/c1ccc(O)c(O)c1)NC[C@@H](O)c1ccccc1 [Compound 12-C]	27
COc1cc(/C=C/C(=O)NC[C@@H](O)c2ccc(O)cc2)cc(OC)c1O [Compound 13-G]	16

SMILES	Induction of death in U-937 cells (percentages of cell death) [%]
COc1ccc([C@H](O)CNC(=O)/C=C/c2ccc(OC)c(O)c2)cc1 [Compound 14-E]	35
COc1ccc([C@@H](CNC(=O)/C=C/c2ccccc2)OC)cc1 [Compound 10-A]	51
COc1ccc([C@@H](CNC(=O)/C=C/c2cc(OC)c(OC)c(OC)c2)OC)cc1 [Compound 10-F]	45
O=C(/C=C/c1ccc(O)cc1)NCCc1ccc(O)cc1 [Compound 17-B]	32
COc1cc(/C=C/C(=O)NC[C@H](OC)c2ccc(O)cc2)ccc1O [Compound 11-D]	34
COc1ccc(/C=C/C(=O)NCCc2ccccc2)cc1O [Compound 16-E]	60
COc1cc(/C=C/C(=O)NC[C@H](O)c2ccc(O)cc2)cc(OC)c1O [Compound 15-G]	47
COc1cc(/C=C/C(=O)NCCc2ccccc2)ccc1O [Compound 16-D]	39
COc1ccc(CCNC(=O)/C=C/c2cccc(OC)c2)cc1 [Compound 18-H]	56
COc1cc(/C=C/C(=O)NC[C@@H](OC)c2ccccc2)ccc1O [Compound 8-D]	20
COc1cc(/C=C/C(=O)NCCc2ccc(O)cc2)cc(OC)c1OC [Compound 17-F]	9
COc1ccc([C@H](O)CNC(=O)/C=C/c2cccc(OC)c2)cc1 [Compound 14-H]	38
COc1cc(/C=C/C(=O)NC[C@H](O)c2ccc(O)cc2)cc(OC)c1OC [Compound 15-F]	12
COc1ccc([C@@H](CNC(=O)/C=C/c2cccc(OC)c2)OC)cc1 [Compound 10-H]	72
O=C(/C=C/c1ccc(O)cc1)NC[C@@H](O)c1ccccc1 [Compound 12-B]	47
O=C(/C=C/c1ccccc1)NCCc1ccccc1 [Compound 16-A]	58
COc1cc(/C=C/C(=O)NCCc2ccc(O)cc2)cc(OC)c1O [Compound 17-G]	26
COc1ccc(/C=C/C(=O)NCCc2ccc(O)cc2)cc1O [Compound 17-E]	18
COc1cc(/C=C/C(=O)NCCc2ccccc2)cc(OC)c1OC [Compound 16-F]	30
COc1ccc([C@H](O)CNC(=O)/C=C/c2ccccc2)cc1 [Compound 14-A]	28
COc1cc(/C=C/C(=O)NCCc2ccccc2)cc(OC)c1O [Compound 16-G]	20
COc1ccc([C@@H](CNC(=O)/C=C/c2ccc(O)c(O)c2)OC)cc1 [Compound 10-C]	−8

SMILES	Induction of death in U-937 cells (percentages of cell death) [%]
CO[C@H](CNC(=O)/C=C/c1ccc(O)cc1)c1ccc(O)cc1 [Compound 9-B]	20
COc1cc(/C=C/C(=O)NC[C@@H](O)c2ccccc2)cc(OC)c1O [Compound 12-G]	41
COc1ccc([C@H](O)CNC(=O)/C=C/c2cc(OC)c(O)c(OC)c2)cc1 [Compound 14-G]	48
CO[C@@H](CNC(=O)/C=C/c1ccc(O)c(O)c1)c1ccc(O)cc1 [Compound 11-C]	−9
COc1ccc(CCNC(=O)/C=C/c2cc(OC)c(OC)c(OC)c2)cc1 [Compound 18-F]	40
COc1ccc(/C=C/C(=O)NC[C@@H](O)c2ccccc2)cc1O [Compound 12-E]	28
O=C(/C=C/c1ccc(O)c(O)c1)NCCc1ccccc1 [Compound 16-C]	24
CO[C@H](CNC(=O)/C=C/c1ccc(O)c(O)c1)c1ccccc1 [Compound 8-C]	−5
COc1ccc(/C=C/C(=O)NC[C@@H](OC)c2ccccc2)cc1O [Compound 8-E]	56
COc1ccc(/C=C/C(=O)NC[C@@H](OC)c2ccc(O)cc2)cc1O [Compound 9-E]	41
COc1ccc([C@H](O)CNC(=O)/C=C/c2ccc(O)c(O)c2)cc1 [Compound 14-C]	−15
COc1ccc([C@@H](CNC(=O)/C=C/c2cc(OC)c(O)c(OC)c2)OC)cc1 [Compound 10-G]	16
COc1cc(/C=C/C(=O)NC[C@@H](OC)c2ccc(O)cc2)cc(OC)c1O [Compound 9-G]	−7
COc1cc(/C=C/C(=O)NC[C@@H](O)c2ccccc2)cc(OC)c1OC [Compound 12-F]	33
O=C(/C=C/c1ccccc1)NCCc1ccc(O)cc1 [Compound 17-A]	48
O=C(/C=C/c1ccccc1)NC[C@@H](O)c1ccccc1 [Compound 12-A]	26
COc1ccc(CCNC(=O)/C=C/c2ccc(O)cc2)cc1 [Compound 18-B]	17
CO[C@H](CNC(=O)/C=C/c1ccccc1)c1ccccc1 [Compound 8-A]	70
COc1ccc(CCNC(=O)/C=C/c2ccc(O)c(O)c2)cc1 [Compound 18-C]	26
COc1ccc([C@H](O)CNC(=O)/C=C/c2cc(OC)c(OC)c(OC)c2)cc1 [Compound 14-F]	26
